Experimental data reported in patent publication US10772858B2, “Benzhydrol derivatives for the management of conditions related to hypoxia inducible factors” (GEORGIA STATE UNIVERSITY RESEARCH FOUNDATION, priority 2015, dated 2020).

System: LN229HRE-luc/lacZ cells (VEGF HRE, HIF-1 target)
Assay: Inhibition of hypoxia-inducible gene expression driven by HRE-reporter construct (firefly luciferase) in glioma cells
Type: cell-based
Settings: Homo sapiens, Glioma cell; firefly luciferase activity in LN229HRE-luc/LacZ cells, 1 hour pretreatment under normoxia, then hypoxia (1% O2); from dose-response curves
Method: Inhibition of Hypoxia-Inducible Gene Expression Driven by Exogenous HRE-Reporter Constructs in Glioma Cells
LN229HRE-luc/lacZ cells were generated by stably transfecting human LN229 glioma cells with a bidirectional reporter construct (pBIGL-V6R) in which the firefly luciferase and LacZ reporter genes are under the control of 6 head to tail tandem copies of the VEGF HRE (hypoxia-responsive element—endogenous HIF-1 target gene) in rightward orientation (clone LN229V6R#18; Hygro selection […]) as reported in Yin et al. Clinical Cancer Research, 2012, 1-11.
Cells were pretreated with different doses of test compounds or 1% DMSO (final concentration in media) vehicle control for 1 hour under normoxia (21% O2); then incubation continued under normoxia or hypoxia (1% O2) using a hypoxia incubator (Thermo Forma model 3130). Firefly luciferase activities in lysates of LN229HRE-luc/LacZ cells were measured with a Dual-Luciferase Reporter Assay System (Promega) in a 20/20 n Luminometer (Promega). The IC50 (μM) value for each individual compound was established from the dose-response curves.

Structure (SMILES) | IC50
CCCCOCc1cccc(C(O)c2ccc(OC)cc2)c1 (centres unmarked) [6g] | > 5000 nM
COc1ccc(C(O)c2ccc3c(c2)C=CC(C)(C)O3)cc1OC (centres unmarked) [26a] | 600 nM
CCCCOCc1cccc(C(O)c2ccc(OC)c(OC)c2)c1 (centres unmarked) [6j] | 2450 nM
CCCCCOc1ccc(C(O)c2ccc(OC)c(OC)c2)c(F)c1 (centres unmarked) [35b] | 1300 nM
COc1ccc([C@H](O)c2ccc(COC3CCOC3)cc2)cc1OC (some centres unmarked) [3f] | > 5000 nM
COc1ccc(C(O)c2ccc(COC(C)C)cc2)cc1OC (centres unmarked) [3n] | > 5000 nM
OC(c1ccccc1)c1cccc(COc2cccc3ccccc23)c1 (centres unmarked) [6d] | > 5000 nM
CCOCc1ccc(C(O)c2ccc(OC)c(OC)c2)cc1 (centres unmarked) [3k] | > 5000 nM
CCOCc1cccc(C(O)c2ccc(OC)cc2)c1 (centres unmarked) [6f] | > 5000 nM
COc1ccc(C(O)c2ccc(CO[C@@H]3CCOC3)cc2)cc1OC (some centres unmarked) [3b] | 3400 nM
CCCCOCc1cccc(C(O)c2cccc(OCCCC)c2)c1 (centres unmarked) [9d] | > 5000 nM
COc1ccc(C(=O)c2ccc(C[C@H]3CCOC3)cc2)cc1OC [36c] | > 5000 nM
CCCCOCc1cccc(C(O)c2cccc(OCOC)c2)c1 (centres unmarked) [9c] | > 5000 nM
CCCCOc1ccc(C(O)c2ccc(OC)c(OC)c2)nc1 (centres unmarked) [15a] | > 5000 nM
COc1ccc(C(O)c2ccc3sc(C)cc3c2)cc1OC (centres unmarked) [29e] | 1030 nM
CCCOc1ccc2cc(C(O)c3ccc(OC)c(OC)c3)ccc2c1 (centres unmarked) [32b] | 2950 nM
COc1ccc(C(O)c2ccc(OCCC3CCN(C(=O)OC(C)(C)C)CC3)cc2C)cc1OC (centres unmarked) [35e, Tert-butyl 4-(2-(4-((3,4-dimethoxyphenyl)(hydroxy)methyl)-3-methylphenoxy)ethyl)piperidine-1-carboxylate] | 270 nM
COc1ccc(C(O)c2ccc(COC3CCOC3)cc2)cc1OC (centres unmarked) [3c] | 3400 nM
CCCCOCc1ccc(C(O)c2cccc(OCc3ccccc3)c2)cc1 (centres unmarked) [3q] | > 5000 nM
COc1ccc(C(O)c2ccc(OC(C)C)cn2)c(OC)c1 (centres unmarked) [15d] | > 5000 nM
COc1ccc(C(O)c2ccc3c(c2)OCCN3C)cc1OC (centres unmarked) [29b] | > 5000 nM
COc1ccc(C(O)c2ccc3c(n2)C=CC(C)(C)O3)cc1OC (centres unmarked) [26d] | 2250 nM
COc1ccc(C(O)c2ccc(COc3cccnc3)cn2)cc1OC (centres unmarked) [3e] | > 5000 nM

Structure (SMILES) | IC50
CCCCOCc1ccc(C(O)c2ccc(OC)cc2OC)cc1 (centres unmarked) [3j] | 630 nM
COc1ccc(C(O)c2ccc3ccccc3c2)cc1OC (centres unmarked) [29c] | 1200 nM
COc1ccc(C(O)c2ccc(COC3CCN(C(=O)OC(C)(C)C)CC3)cc2)cc1OC (centres unmarked) [3o] | 890 nM
CCCCOCc1cccc(C(O)c2ccc(OC)c(OCOC)c2)c1 (centres unmarked) [6n] | 750 nM
CCCOCc1ccc(C(O)c2ccc(OC)c(OCCC)c2)cc1 (centres unmarked) [3v] | 5000 nM
CCCCOc1ccc(C(O)c2ccc(OC)cc2OC)nc1 (centres unmarked) [15b] | > 5000 nM
CCCOCc1cccc(C(O)c2ccc(OC)cc2OC)c1 (centres unmarked) [6i] | 5000 nM
COc1ccc(C(O)c2ccc(CN3CCN(C(=O)OC(C)(C)C)CC3)cc2)cc1OC (centres unmarked) [21b] | 1490 nM
COc1ccc(C(O)c2ccc(COC3CCCCC3)cc2)c(OC)c1 (centres unmarked) [3h] | 680 nM
CCCOCc1ccccc1C(O)c1ccc(OC)c(OC)c1 (centres unmarked) [9a] | > 5000 nM
COc1ccc(C(O)c2ccc3cc(OC(C)C)ccc3c2)cc1OC (centres unmarked) [32d] | 2620 nM
CCCOCc1ccc(C(O)c2ccc(OC)c(OC)c2)cc1 (centres unmarked) [3m] | 300 nM
COc1ccc(C(O)c2cc3c(c(OC)c2)OC(C)(C)C=C3)cc1OC (centres unmarked) [26c] | 3100 nM
CCCCCOc1ccc(C(O)c2ccc(OC)c(OC)c2)cc1 (centres unmarked) [14b] | 1900 nM
COc1ccc(C(O)c2cccc(COC3CCN(C(=O)OC(C)(C)C)CC3)c2)c(OC)c1 (centres unmarked) [6c] | 550 nM
COc1ccc(C(O)c2cccc(COc3ccccc3)c2)cc1OC (centres unmarked) [6a] | 1000 nM
COc1ccc(C(O)c2ccc(OC)c(OC)c2)cc1OC [24b] | > 5000 nM
COc1ccc(C(O)c2ccc(-c3ccccc3)cc2)cc1OC (centres unmarked) [24f] | > 5000 nM
CCCCOCc1cccc(C(O)c2ccc(OC)c(OCCCC)c2)c1 (centres unmarked) [6o] | 1000 nM
COc1cccc(C(O)c2ccc3c(c2)C=CC(C)(C)O3)c1 (centres unmarked) [26b] | > 5000 nM
CCCCOCc1cccc(C(O)c2ccc(OCc3ccccc3)c(OCC)c2)c1 (centres unmarked) [6p] | 620 nM
CCOCc1ccc(C(O)c2ccc(OC)cc2)cc1 (centres unmarked) [3l] | > 5000 nM
COc1ccc(C(O)c2ccccc2)cc1OC (centres unmarked) [24a] | 2200 nM

Structure (SMILES) | IC50
CCCCOCc1cccc(C(O)c2ccc(OC)cc2OC)c1 (centres unmarked) [6h] | 480 nM
CCCCCCOc1ccc2cc(C(O)c3ccc(OC)c(OC)c3)ccc2c1 (centres unmarked) [32a] | 1800 nM
CCCCOCc1cccc(C(O)c2cccc(OCc3ccccc3)c2)c1 (centres unmarked) [6m] | > 5000 nM
CCCCOc1cccc(C(O)c2cccc(COCCC)c2)c1 (centres unmarked) [6k] | 3800 nM
C=CCOc1ccc(C(O)c2ccc(OC)c(OC)c2)cc1 (centres unmarked) [14a] | > 5000 nM
COc1ccc(C(O)c2ccc(CN3CCOCC3)cn2)cc1OC (centres unmarked) [21a] | > 5000 nM
COc1ccc(C(=O)c2ccc(COC3CCN(C(=O)OC(C)(C)C)CC3)cc2)cc1OC [36g] | 4500 nM
COc1ccc(C(=O)c2ccc3c(c2)C=CC(C)(C)O3)cc1OC [36e] | > 5000 nM
COc1ccc(C(O)c2cc3c(c(OC)c2)OC(C)(C)CC3)cc1OC (centres unmarked) [27c] | 4200 nM
CCCOCc1ccc(C(O)c2ccc(OC)c(OCc3ccccc3)c2)cc1 (centres unmarked) [3p] | > 5000 nM
CCCOCc1ccc(C(O)c2ccc(OCOC)cc2)cc1 (centres unmarked) [3r] | > 5000 nM
COc1ccc(C(O)c2cccc(COC3CCN(C(=O)OC(C)(C)C)CC3)c2)cc1OC (centres unmarked) [6b, Tert-butyl 4-((3-((3,4-dimethoxyphenyl)(hydroxy)methyl)benzyl)oxy)piperidine-1-carboxylate] | 200 nM
COc1ccc(C(O)c2ccc(OCCC3CCN(C(=O)OC(C)(C)C)CC3)cc2)cc1OC (centres unmarked) [14c] | 330 nM
COc1ccc(C(O)c2ccc3c(n2)CCC(C)(C)O3)cc1OC (centres unmarked) [27d] | 2300 nM
COc1ccc(C(O)c2ccc(CO[C@H]3CCOC3)cn2)cc1OC (some centres unmarked) [3d] | > 5000 nM
COc1ccc(C(O)c2ccc(OCc3cnco3)cn2)cc1OC (centres unmarked) [14d] | > 5000 nM
COc1ccc(C(O)c2ccc(COC3CCCCC3)cc2)cc1OC (centres unmarked) [3g] | 400 nM
CCCOCc1ccc(C(O)c2ccc(OCc3ccccc3)c(OCC)c2)cc1 (centres unmarked) [3w] | > 5000 nM
CCCOCc1ccc(C(O)c2ccc(OC)c(OCOC)c2)cc1 (centres unmarked) [3u] | > 5000 nM
COc1ccc(C(=O)c2ccc3c(n2)C=CC(C)(C)O3)cc1OC [36h] | > 5000 nM
COc1cc(C(O)c2ccc(OCC3CCN(C(=O)OC(C)(C)C)CC3)cc2C)cc(OC)c1OC (centres unmarked) [35f] | 270 nM
COc1ccc(C(O)c2ccc(C3CCCO3)cc2)cc1OC (centres unmarked) [24e] | 5000 nM
CCCCCOc1ccc(C(O)c2ccc(OC)c(OC)c2)c(C)c1 (centres unmarked) [35c] | 430 nM

Structure (SMILES) | IC50
COc1ccc(C(O)c2ccc(OC3CCOC3)cc2OC)cc1OC (centres unmarked) [35a] | 4200 nM
COc1ccc(C(O)c2ccc(N3CCN(C)CC3)cc2)cc1OC (centres unmarked) [24d] | > 5000 nM
CCCCOCc1cccc(C(O)c2ccc(OC)c(OCc3ccccc3)c2)c1 (centres unmarked) [6l] | 2980 nM
COc1ccc(C(O)c2ccc(CO[C@@H]3CCN(C(=O)OC(C)(C)C)C3)cc2)cc1OC (some centres unmarked) [3t] | > 5000 nM
COc1ccc(C(O)c2ccc3c(c2)CCO3)cc1OC (centres unmarked) [29a] | > 5000 nM
COc1ccc(C(=O)c2cccc(COC3CCN(C(=O)OC(C)(C)C)CC3)c2)cc1OC [36f] | > 5000 nM
CCCCOCc1ccccc1C(O)c1ccc(OC)c(OCc2ccccc2)c1 (centres unmarked) [9b] | > 5000 nM
COc1ccc(C(O)c2ccc(COC3CN(C(=O)OC(C)(C)C)C3)cc2)cc1OC (centres unmarked) [3s] | > 5000 nM
COc1ccc(C(O)c2ccc(CBr)cc2)cc1OC (centres unmarked) [21c] | 1000 nM
COc1ccc(OC)c(C(O)c2ccc(OC)c(OC)c2)c1 (centres unmarked) [24c] | > 5000 nM
COc1ccc(C(O)c2ccc(OC(C)C)cn2)cc1OC (centres unmarked) [15c] | > 5000 nM
COc1ccc(C(=O)c2ccc(N3CCOCC3)cc2)cc1OC [36d] | > 5000 nM
COc1ccc(C(O)c2ccc3c(c2)OCCO3)cc1OC (centres unmarked) [29d] | 4180 nM
COc1ccc(C(O)c2ccc(CO[C@H]3CCOC3)cc2)cc1OC (stereo partly drawn) [3a, (3,4-Dimethoxyphenyl)(4-((((S)-tetrahydrofuran-3-yl)oxy)methyl)phenyl)methanol] | 300 nM
COc1cc(C(O)c2ccc(OCCC3CCN(C(=O)OC(C)(C)C)CC3)cc2C)cc(OC)c1OC (centres unmarked) [35g, Tert-butyl 4-(2-(4-(hydroxy(3,4,5-trimethoxyphenyl)methyl)-3-methylphenoxy)ethyl)piperidine-1-carboxylate] | 270 nM
CCCCOCc1ccc(C(O)c2ccc(OC)c(OC)c2)cc1 (centres unmarked) [3i, (4-(Butoxymethyl)phenyl)(3,4-dimethoxyphenyl)methanol] | 500 nM
COc1ccc(C(O)c2ccc(OCC3CCN(C(=O)OC(C)(C)C)CC3)cc2C)cc1OC (centres unmarked) [35d] | 330 nM
COc1ccc(C(O)c2cccc(COc3cccc4ccccc34)c2)cc1OC (centres unmarked) [6e] | 1830 nM
COc1ccc(C(O)c2ccc3sc(C)cc3c2)c(OC)c1 (centres unmarked) [29f] | > 5000 nM
CCCCOc1ccc2cc(C(O)c3ccc(OC)c(OC)c3)ccc2c1 (centres unmarked) [32c] | 3330 nM
